Where two headings read alike, the source gives them in different places.
Columns and labels:
[1] = test system: melanoma brain metastatic lesions; conditions: combined with trametinib, clinical trials; cited from earlier work
P-gp = biological target: T1, P-gp (Homo sapiens, UniProt P08183); conditions: background statement on dabrafenib; cited from earlier work
T1 construct: host or cells: MDCK (MDR1-MDCK)

[2] = Pharmacokinetics in CD-1 mice, serum by LC-MS/MS; format: in vivo, mouse
[3] = 20 mg/kg IP, CD-1 mice, one-compartment model, listed as 261
[4] = 20 mg/kg IP, CD-1 mice, one-compartment model, listed as everafenib
[5] = CD-1, mouse, serum, intraperitoneal, 20 mg/kg IP, read-out: [Drug] serum concentration
[6] = CD-1, mouse, serum, 25 mg/kg IV, read-out: [Drug] serum concentration

T1 sequence (P08183 whole entry): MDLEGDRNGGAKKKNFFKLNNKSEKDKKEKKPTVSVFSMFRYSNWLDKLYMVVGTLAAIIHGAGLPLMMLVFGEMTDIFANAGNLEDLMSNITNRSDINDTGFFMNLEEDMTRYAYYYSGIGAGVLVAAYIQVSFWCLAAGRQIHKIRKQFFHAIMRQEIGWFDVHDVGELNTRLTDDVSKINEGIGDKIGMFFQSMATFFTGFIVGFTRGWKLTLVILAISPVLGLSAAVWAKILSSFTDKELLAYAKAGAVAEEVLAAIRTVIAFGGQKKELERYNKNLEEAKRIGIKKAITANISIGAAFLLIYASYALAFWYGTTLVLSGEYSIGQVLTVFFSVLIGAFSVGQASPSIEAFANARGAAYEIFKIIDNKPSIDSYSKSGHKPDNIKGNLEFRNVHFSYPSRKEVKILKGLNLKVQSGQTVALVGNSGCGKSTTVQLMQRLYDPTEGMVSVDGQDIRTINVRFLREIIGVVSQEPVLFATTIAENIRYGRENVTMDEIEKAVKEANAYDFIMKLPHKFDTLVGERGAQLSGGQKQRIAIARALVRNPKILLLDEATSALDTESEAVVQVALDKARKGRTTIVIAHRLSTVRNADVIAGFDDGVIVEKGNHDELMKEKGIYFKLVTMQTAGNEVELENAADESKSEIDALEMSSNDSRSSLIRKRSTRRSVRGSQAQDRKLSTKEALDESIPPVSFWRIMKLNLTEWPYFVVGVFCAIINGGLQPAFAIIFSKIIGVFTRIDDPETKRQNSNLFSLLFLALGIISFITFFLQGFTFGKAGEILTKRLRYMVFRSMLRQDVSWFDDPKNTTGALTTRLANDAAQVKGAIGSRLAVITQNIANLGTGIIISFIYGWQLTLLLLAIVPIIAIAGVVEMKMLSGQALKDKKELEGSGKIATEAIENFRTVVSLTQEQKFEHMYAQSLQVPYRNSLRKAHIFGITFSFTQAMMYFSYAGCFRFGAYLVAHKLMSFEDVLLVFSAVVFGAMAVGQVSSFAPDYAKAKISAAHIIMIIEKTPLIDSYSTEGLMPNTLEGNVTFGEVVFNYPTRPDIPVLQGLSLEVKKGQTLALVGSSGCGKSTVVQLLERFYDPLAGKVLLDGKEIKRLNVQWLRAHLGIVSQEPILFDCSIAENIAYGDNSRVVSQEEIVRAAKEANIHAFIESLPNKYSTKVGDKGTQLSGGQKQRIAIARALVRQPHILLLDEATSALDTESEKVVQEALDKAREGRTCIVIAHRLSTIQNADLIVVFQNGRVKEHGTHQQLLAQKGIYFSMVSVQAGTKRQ

CC(C)(C)c1nc(-c2cccc(NS(=O)(=O)c3c(F)cccc3F)c2F)c(-c2ccnc(N)n2)s1 [Dabrafenib, reference compound]
duration of intracranial response [1]: 6.5 months
efflux ratio (recognized by P-gp) (P-gp): 11.4-18.3

CCCS(=O)(=O)Nc1cc(Cl)cc(-c2nc(C(C)(C)C)sc2-c2ccnc(N)n2)c1F [6-261, N-(3-(5-(2-aminopyrimidin-4-yl)-2-(tert-butyl)thiazol-4-yl)-5-chloro-2-fluorophenyl)propane-1-sulfonamide]
AUC [2, 3]: 503964.63 ng·min/mL
CL [2, 3]: 39.69 mL/min/kg
Cmax [2, 3]: 9364.7721 ng/mL
T1/2 [2, 3]: 37.3 min
Vss [2, 3]: 2.6929321 L/kg
CL [2, 4]: 39.7 mL/min/kg
Vss [2, 4]: 2.6929 L/kg
concentration at 0 min ([2]; CD-1, mouse, serum, intraperitoneal, 20 mg/kg IP, 0 min, read-out: [Drug] serum concentration): 0 nM
concentration at 15 min [2, 5]: 12.9 ± 0.557 µM
concentration at 30 min ([2]; CD-1, mouse, serum, intraperitoneal, 20 mg/kg IP, 30 min, read-out: [Drug] serum concentration): 9.46 ± 0.621 µM
concentration at 45 min ([2]; CD-1, mouse, serum, intraperitoneal, 20 mg/kg IP, 45 min, read-out: [Drug] serum concentration): 6.7 ± 0.122 µM
concentration at 60 min [2, 5]: 5.59 ± 0.167 µM
concentration at 120 min ([2]; CD-1, mouse, serum, intraperitoneal, 20 mg/kg IP, 120 min, read-out: [Drug] serum concentration): 2.55 ± 0.194 µM
concentration at 240 min ([2]; CD-1, mouse, serum, intraperitoneal, 20 mg/kg IP, 240 min, read-out: [Drug] serum concentration): 0.581 ± 0.118 µM
concentration at 480 min ([2]; CD-1, mouse, serum, intraperitoneal, 20 mg/kg IP, 480 min, read-out: [Drug] serum concentration): 0.014 ± 0.00207 µM
concentration at 960 min ([2]; CD-1, mouse, serum, intraperitoneal, 20 mg/kg IP, 960 min, read-out: [Drug] serum concentration): 0 nM
half-life ([2]; CD-1, mouse, serum, ip, 20 mg/kg, 20 mg/kg IP, CD-1 mice, one-compartment model): 37.3 min
AUC ([2]; CD-1, mouse, serum, ip, 20 mg/kg, 20 mg/kg IP, CD-1 mice, one-compartment model, read-out: AUC (converted)): 504000 ng·min/mL
Cmax ([2]; CD-1, mouse, serum, ip, 20 mg/kg, 20 mg/kg IP, CD-1 mice, one-compartment model, read-out: Cmax): 9360 ng/mL
concentration at 15 min [2, 6]: 16.4 ± 0.719 µM
concentration at 60 min [2, 6]: 6.56 ± 0.29 µM

Reference: patent US20250230151A1, “COMPOUNDS FOR CANCERS DRIVEN BY BRAF MUTATION” (THE BOARD OF TRUSTEES OF THE UNIVERSITY OF ILLINOIS, priority 2021, published 2025)
